{
  "source": "paper PMC5218480",
  "about": "(PLoS ONE, 2017)",
  "test_system": "MV-4-11 cells",
  "assay": "Gene expression microarray analysis (Affymetrix PrimeView) and GSEA",
  "assay_type": "cell-based, human",
  "set-up": "RFU PODN (11730768_x_at) / Fold change /veh PODN (11730768_x_at) / RFU LINC00158 (11744669_a_at) / Fold change /veh LINC00158 (11744669_a_at) / RFU DUSP10 (11751237_a_at) / Fold change /veh DUSP10 (11751237_a_at) / RFU ID3 (11757404_x_at) / Fold change /veh ID3 (11757404_x_at) / RFU PLEKHG5 (11737974_s_at) / Fold change /veh PLEKHG5 (11737974_s_at) / RFU LRRC4B (11730491_at) / Fold change /veh LRRC4B (11730491_at) / RFU GIMAP4 (11747438_a_at) / Fold change /veh GIMAP4 (11747438_a_at) / RFU KRT8 (11758183_x_at) / Fold change /veh KRT8 (11758183_x_at) / RFU CNN1 (11734310_a_at) / Fold change /veh CNN1 (11734310_a_at) / RFU VPS37D (11726825_at) / Fold change /veh VPS37D (11726825_at) / RFU C10orf10 (11716522_x_at) / Fold change /veh C10orf10 (11716522_x_at) / RFU KIR2DL2 /// KIR2DL4 /// KIR2DL5A /// KIR2DL5B /// KIR2DS1 /// KIR2DS2 /// KIR2DS3 /// KIR2DS4 /// KIR3DL3 /// KIR3DL3 /// KIR3DS1 (11738374_at) / Fold change /veh KIR2DL2 /// KIR2DL4 /// KIR2DL5A /// KIR2DL5B /// KIR2DS1 /// KIR2DS2 /// KIR2DS3 /// KIR2DS4 /// KIR3DL3 /// KIR3DL3 /// KIR3DS1 (11738374_at) / RFU C1QL1 (11718748_at) / Fold change /veh C1QL1 (11718748_at) / RFU TMPRSS4 (11747572_a_at) / Fold change /veh TMPRSS4 (11747572_a_at) / RFU HAMP (11756126_x_at) / Fold change /veh HAMP (11756126_x_at) / RFU RNFT2 (11725882_a_at) / Fold change /veh RNFT2 (11725882_a_at) / RFU NR4A2 (11747474_a_at) / Fold change /veh NR4A2 (11747474_a_at) / RFU ABCC12 (11746883_a_at) / Fold change /veh ABCC12 (11746883_a_at) / RFU TMEM136 (11760407_x_at) / Fold change /veh TMEM136 (11760407_x_at) / RFU CLDN22 /// WWC2 (11732394_at) / Fold change /veh CLDN22 /// WWC2 (11732394_at) / RFU HLA-DPB1 (11760878_x_at) / Fold change /veh HLA-DPB1 (11760878_x_at) / RFU SPINT1 (11716480_a_at) / Fold change /veh SPINT1 (11716480_a_at) / RFU GAP43 (11754022_s_at) / Fold change /veh GAP43 (11754022_s_at) / RFU A4GNT (11735810_at) / Fold change /veh A4GNT (11735810_at) / RFU PRB3 (11715151_x_at) / Fold change /veh PRB3 (11715151_x_at) / RFU TUBB4B (11761932_at) / Fold change /veh TUBB4B (11761932_at) / RFU CAPN14 (11732068_a_at) / Fold change /veh CAPN14 (11732068_a_at) / RFU TMCC2 (11721928_a_at) / Fold change /veh TMCC2 (11721928_a_at) / RFU IRGQ (11745062_a_at) / Fold change /veh IRGQ (11745062_a_at) / RFU FAM174B (11720279_a_at) / Fold change /veh FAM174B (11720279_a_at) / RFU TMPRSS4 (11748680_a_at) / Fold change /veh TMPRSS4 (11748680_a_at) / RFU FAM212B (11763350_a_at) / Fold change /veh FAM212B (11763350_a_at) / RFU PLEKHG5 (11743358_a_at) / Fold change /veh PLEKHG5 (11743358_a_at) / RFU ZSCAN30 (11745921_a_at) / Fold change /veh ZSCAN30 (11745921_a_at) / RFU CMKLR1 (11741424_a_at) / Fold change /veh CMKLR1 (11741424_a_at) / RFU LOC101060620 /// MAPK8IP1 (11723275_at) / Fold change /veh LOC101060620 /// MAPK8IP1 (11723275_at) / RFU SPTSSB (11747773_x_at) / Fold change /veh SPTSSB (11747773_x_at) / RFU PRSS12 (11739890_at) / Fold change /veh PRSS12 (11739890_at) / RFU BIN1 (11741810_x_at) / Fold change /veh BIN1 (11741810_x_at) / RFU WNT11 (11732464_a_at) / Fold change /veh WNT11 (11732464_a_at) / RFU C10orf10 (11716521_a_at) / Fold change /veh C10orf10 (11716521_a_at) / RFU C5orf56 (11738089_at) / Fold change /veh C5orf56 (11738089_at) / RFU CYB561 (11721691_x_at) / Fold change /veh CYB561 (11721691_x_at) / RFU ANKRD19P (11752326_a_at) / Fold change /veh ANKRD19P (11752326_a_at) / RFU OR2T12 /// OR2T33 /// OR2T8 (11738714_s_at) / Fold change /veh OR2T12 /// OR2T33 /// OR2T8 (11738714_s_at) / RFU VCAN (11748164_a_at) / Fold change /veh VCAN (11748164_a_at) / RFU JSRP1 (11732532_at) / Fold change /veh JSRP1 (11732532_at) / RFU KRTAP10-11 (11738290_x_at) / Fold change /veh KRTAP10-11 (11738290_x_at) / RFU MYO3A (11730013_a_at) / Fold change /veh MYO3A (11730013_a_at) / RFU EBF3 (11725865_a_at) / Fold change /veh EBF3 (11725865_a_at) / RFU CAMK2N1 (11719241_x_at) / Fold change /veh CAMK2N1 (11719241_x_at) / RFU C5orf56 (11738088_a_at) / Fold change /veh C5orf56 (11738088_a_at) / RFU OLFML3 (11715873_a_at) / Fold change /veh OLFML3 (11715873_a_at) / RFU LOC100653217 /// NTM (11731650_a_at) / Fold change /veh LOC100653217 /// NTM (11731650_a_at) / RFU MAPK11 (11762145_a_at) / Fold change /veh MAPK11 (11762145_a_at) / RFU FIZ1 (11724087_x_at) / Fold change /veh FIZ1 (11724087_x_at) / RFU OASL (11726364_x_at) / Fold change /veh OASL (11726364_x_at) / RFU SOX15 (11748057_x_at) / Fold change /veh SOX15 (11748057_x_at) / RFU CD79A (11719716_a_at) / Fold change /veh CD79A (11719716_a_at) / RFU HIST1H1D (11736915_at) / Fold change /veh HIST1H1D (11736915_at) / RFU CASKIN2 (11723855_a_at) / Fold change /veh CASKIN2 (11723855_a_at) / RFU LOC730098 (11760151_x_at) / Fold change /veh LOC730098 (11760151_x_at) / RFU OR4N2 (11742367_at) / Fold change /veh OR4N2 (11742367_at) / RFU PRRT2 (11749266_a_at) / Fold change /veh PRRT2 (11749266_a_at) / RFU SNX32 (11753110_a_at) / Fold change /veh SNX32 (11753110_a_at) / RFU CDHR5 (11726645_a_at) / Fold change /veh CDHR5 (11726645_a_at) / RFU RCAN1 (11760418_a_at) / Fold change /veh RCAN1 (11760418_a_at) / RFU FAM167A (11723789_a_at) / Fold change /veh FAM167A (11723789_a_at) / RFU FAM26E (11764081_at) / Fold change /veh FAM26E (11764081_at) / RFU ISYNA1 (11749810_s_at) / Fold change /veh ISYNA1 (11749810_s_at) / RFU ACY1 (11761880_at) / Fold change /veh ACY1 (11761880_at) / RFU 11764098_at / Fold change /veh 11764098_at / RFU SAMD14 (11745864_x_at) / Fold change /veh SAMD14 (11745864_x_at) / RFU NPB (11741838_a_at) / Fold change /veh NPB (11741838_a_at) / RFU TMPRSS6 (11731388_a_at) / Fold change /veh TMPRSS6 (11731388_a_at) / RFU KRTAP10-2 (11738614_at) / Fold change /veh KRTAP10-2 (11738614_at) / RFU ARHGAP8 /// PRR5-ARHGAP8 (11727945_x_at) / Fold change /veh ARHGAP8 /// PRR5-ARHGAP8 (11727945_x_at) / RFU KRTAP5-7 /// NADSYN1 (11734609_at) / Fold change /veh KRTAP5-7 /// NADSYN1 (11734609_at) / RFU RASL12 (11751679_a_at) / Fold change /veh RASL12 (11751679_a_at) / RFU CDKN2B (11736163_a_at) / Fold change /veh CDKN2B (11736163_a_at) / RFU PRF1 (11729649_at) / Fold change /veh PRF1 (11729649_at) / RFU, ZNF638 /// ZNF638-IT1 / Fold change vs veh, ZNF638 /// ZNF638-IT1 / RFU, PANK3 / Fold change vs veh, PANK3 / RFU, SH3YL1 / Fold change vs veh, SH3YL1 / RFU, ZEB2 / Fold change vs veh, ZEB2 / RFU, NRIP1 / Fold change vs veh, NRIP1 / RFU, PTTG1IP / Fold change vs veh, PTTG1IP / RFU, CAPN2 / Fold change vs veh, CAPN2 / RFU, MED14 / Fold change vs veh, MED14 / RFU, SNORA58 / Fold change vs veh, SNORA58 / RFU, C1orf63 / Fold change vs veh, C1orf63 / RFU, LRRFIP1 / Fold change vs veh, LRRFIP1 / RFU, NDUFAF7 / Fold change vs veh, NDUFAF7 / RFU, SLC12A2 / Fold change vs veh, SLC12A2 / RFU, IBTK / Fold change vs veh, IBTK / RFU, ESF1 / Fold change vs veh, ESF1 / Fold change vs veh, TMEM50B / RFU, TAOK1 / Fold change vs veh, TAOK1 / RFU, ACBD3 / Fold change vs veh, ACBD3 / RFU, TMA16 / Fold change vs veh, TMA16 / RFU, RWDD3 / Fold change vs veh, RWDD3 / RFU, BCAT1 / Fold change vs veh, BCAT1 / RFU, EDEM3 / Fold change vs veh, EDEM3 / RFU, TMEM33 / Fold change vs veh, TMEM33 / RFU, WDR75 / Fold change vs veh, WDR75 / RFU, AHCTF1 / Fold change vs veh, AHCTF1 / RFU, TFRC / Fold change vs veh, TFRC / RFU, ZDHHC17 / Fold change vs veh, ZDHHC17 / RFU, NOM1 / Fold change vs veh, NOM1 / RFU, ARL8B / Fold change vs veh, ARL8B / RFU, ZBTB11 / Fold change vs veh, ZBTB11 / RFU, TAMM41 / Fold change vs veh, TAMM41 / RFU, KIAA1704 /// LOC100996395 / Fold change vs veh, KIAA1704 /// LOC100996395 / RFU, ING1 / Fold change vs veh, ING1 / RFU, TRMT61B / Fold change vs veh, TRMT61B / RFU, FUBP3 / Fold change vs veh, FUBP3 / RFU, TP53 / Fold change vs veh, TP53 / RFU, TNKS2 / Fold change vs veh, TNKS2 / RFU, ZFP14 / Fold change vs veh, ZFP14 / RFU, ACTR2 / Fold change vs veh, ACTR2 / RFU, PPP3R1 / Fold change vs veh, PPP3R1 / RFU, PIK3R1 / Fold change vs veh, PIK3R1 / RFU, HNRNPA1 / Fold change vs veh, HNRNPA1 / RFU, RNF170 / Fold change vs veh, RNF170 / RFU, ZNF28 / Fold change vs veh, ZNF28 / RFU, RNGTT / Fold change vs veh, RNGTT / RFU, OGT / Fold change vs veh, OGT / RFU, BRD1 / Fold change vs veh, BRD1 / RFU, MARS / Fold change vs veh, MARS / RFU, ZNF655 / Fold change vs veh, ZNF655 / RFU, FAHD1 / Fold change vs veh, FAHD1 / RFU, BDP1 / Fold change vs veh, BDP1 / RFU, LRRCC1 / Fold change vs veh, LRRCC1 / RFU, ARID1A / Fold change vs veh, ARID1A / RFU, ZNF146 / Fold change vs veh, ZNF146 / RFU, ZNF330 / Fold change vs veh, ZNF330 / RFU, GPN3 / Fold change vs veh, GPN3 / RFU, C9orf123 / Fold change vs veh, C9orf123 / RFU, N4BP2L2 / Fold change vs veh, N4BP2L2 / RFU, ARFIP1 / Fold change vs veh, ARFIP1 / RFU, FAM179B / Fold change vs veh, FAM179B / RFU, BCL10 / Fold change vs veh, BCL10 / RFU, UHRF1BP1L / Fold change vs veh, UHRF1BP1L / RFU, BET1 / Fold change vs veh, BET1 / RFU, CNOT2 / Fold change vs veh, CNOT2 / RFU, ZNF268 / Fold change vs veh, ZNF268 / Fold change vs veh, ZNF507 / RFU, DGCR2 / Fold change vs veh, DGCR2 / RFU, WDSUB1 / Fold change vs veh, WDSUB1 / Fold change vs veh, HSP90B1 /// MIR3652 / RFU, ADSS / Fold change vs veh, ADSS / RFU, GK / Fold change vs veh, GK / RFU, ZNF148 / Fold change vs veh, ZNF148 / RFU, TAF9 / Fold change vs veh, TAF9 / RFU, SLC1A5 / Fold change vs veh, SLC1A5 / RFU, SLMO2 / Fold change vs veh, SLMO2 / RFU, ABCC4 / Fold change vs veh, ABCC4 / RFU, LOC101060439 /// RAP1B / Fold change vs veh, LOC101060439 /// RAP1B / RFU, RFX7 / Fold change vs veh, RFX7 / RFU, GTPBP10 / Fold change vs veh, GTPBP10 / RFU, CNEP1R1 / Fold change vs veh, CNEP1R1 / RFU, BIVM-ERCC5 /// ERCC5 / Fold change vs veh, BIVM-ERCC5 /// ERCC5 / RFU, ILF3 / Fold change vs veh, ILF3 / RFU 11762660_at / Fold change /veh 11762660_at / RFU VCAN (11757783_s_at) / Fold change /veh VCAN (11757783_s_at) / RFU DDX43 (11728927_at) / Fold change /veh DDX43 (11728927_at) / RFU KRT8 (11758188_x_at) / Fold change /veh KRT8 (11758188_x_at) / RFU NKD1 (11759106_at) / Fold change /veh NKD1 (11759106_at) / RFU SRD5A1 (11742802_a_at) / Fold change /veh SRD5A1 (11742802_a_at) / RFU TPSAB1 /// TPSB2 (11721975_s_at) / Fold change /veh TPSAB1 /// TPSB2 (11721975_s_at) / RFU GSTM3 (11746129_a_at) / Fold change /veh GSTM3 (11746129_a_at) / RFU IL23R (11737362_x_at) / Fold change /veh IL23R (11737362_x_at) / RFU TMEM51 (11727254_a_at) / Fold change /veh TMEM51 (11727254_a_at) / RFU PIWIL2 (11732686_x_at) / Fold change /veh PIWIL2 (11732686_x_at) / RFU ORM1 (11744905_x_at) / Fold change /veh ORM1 (11744905_x_at) / RFU CCDC152 (11743942_at) / Fold change /veh CCDC152 (11743942_at) / RFU ECM1 (11717891_a_at) / Fold change /veh ECM1 (11717891_a_at) / RFU IL23R (11748794_a_at) / Fold change /veh IL23R (11748794_a_at) / RFU TNFAIP8L3 (11732012_x_at) / Fold change /veh TNFAIP8L3 (11732012_x_at) / RFU MBOAT4 (11741988_at) / Fold change /veh MBOAT4 (11741988_at) / RFU 11764193_at / Fold change /veh 11764193_at / RFU TMEM53 (11763286_at) / Fold change /veh TMEM53 (11763286_at) / RFU MAGEB2 (11727129_at) / Fold change /veh MAGEB2 (11727129_at) / RFU TMEM200A (11744735_a_at) / Fold change /veh TMEM200A (11744735_a_at) / RFU CCDC152 (11751479_a_at) / Fold change /veh CCDC152 (11751479_a_at) / RFU FAM211A (11726209_a_at) / Fold change /veh FAM211A (11726209_a_at) / RFU RGS16 (11746705_a_at) / Fold change /veh RGS16 (11746705_a_at) / RFU VCAN (11755009_s_at) / Fold change /veh VCAN (11755009_s_at) / RFU RHOB (11743442_s_at) / Fold change /veh RHOB (11743442_s_at) / RFU RGS16 (11720943_a_at) / Fold change /veh RGS16 (11720943_a_at) / RFU RGS16 (11720944_at) / Fold change /veh RGS16 (11720944_at) / RFU, VPS4B / Fold change vs veh, VPS4B / RFU, CREB1 / Fold change vs veh, CREB1 / RFU, DNAJC13 / Fold change vs veh, DNAJC13 / RFU, GNAQ / Fold change vs veh, GNAQ / RFU, CDK5R1 / Fold change vs veh, CDK5R1 / RFU, ZRANB3 / Fold change vs veh, ZRANB3 / RFU, CUL4A / Fold change vs veh, CUL4A / RFU, CCNY / Fold change vs veh, CCNY / RFU, UFL1 / Fold change vs veh, UFL1 / RFU, COG3 / Fold change vs veh, COG3 / RFU, DIAPH2 / Fold change vs veh, DIAPH2 / RFU, SKA2 / Fold change vs veh, SKA2 / RFU, AFF3 / Fold change vs veh, AFF3 / RFU, LMF1 / Fold change vs veh, LMF1 / RFU, IPO11 / Fold change vs veh, IPO11 / RFU, DFFB / Fold change vs veh, DFFB / RFU, FOXP1 / Fold change vs veh, FOXP1 / RFU, CARD8 / Fold change vs veh, CARD8 / RFU, STRN3 / Fold change vs veh, STRN3 / RFU, ADK / Fold change vs veh, ADK / RFU, RASSF2 / Fold change vs veh, RASSF2 / RFU, WIPF1 / Fold change vs veh, WIPF1 / RFU, LARP1B / Fold change vs veh, LARP1B / RFU, RASA1 / Fold change vs veh, RASA1 / RFU, RB1 / Fold change vs veh, RB1 / RFU, PPFIA1 / Fold change vs veh, PPFIA1 / RFU, MAT2A / Fold change vs veh, MAT2A / RFU, CCT5 / Fold change vs veh, CCT5 / RFU, WDR92 / Fold change vs veh, WDR92 / RFU, CUX1 / Fold change vs veh, CUX1 / RFU, TTC7A / Fold change vs veh, TTC7A / RFU, TMEM135 / Fold change vs veh, TMEM135 / RFU, DEPTOR / Fold change vs veh, DEPTOR / RFU, CPM / Fold change vs veh, CPM / RFU, DNAJB6 / Fold change vs veh, DNAJB6 / RFU, CACNA2D3 / Fold change vs veh, CACNA2D3 / RFU, DTX4 / Fold change vs veh, DTX4 / RFU, TFCP2 / Fold change vs veh, TFCP2 / RFU, GMCL1 /// GMCL1P1 / Fold change vs veh, GMCL1 /// GMCL1P1 / RFU, AEBP2 / Fold change vs veh, AEBP2 / RFU, SNHG1 /// SNORD22 /// SNORD25 /// SNORD26 /// SNORD27 /// SNORD28 /// SNORD29 /// SNORD31 / Fold change vs veh, SNHG1 /// SNORD22 /// SNORD25 /// SNORD26 /// SNORD27 /// SNORD28 /// SNORD29 /// SNORD31 / Fold change (Aza/veh), C12orf56 (ProbeSet 11735607_a_at) / Fold change (ACY-1035/veh), C12orf56 (ProbeSet 11735607_a_at) / Fold change (Aza/veh), FGFR1OP (ProbeSet 11751329_s_at) / Fold change (ACY-1035/veh), FGFR1OP (ProbeSet 11751329_s_at) / Fold change (Aza/veh), VPS36 (ProbeSet 11739960_a_at) / Fold change (ACY-1035/veh), VPS36 (ProbeSet 11739960_a_at) / RFU SYPL1 (11715823_x_at) / Fold change /veh SYPL1 (11715823_x_at) / RFU IGFBP7 (11715501_s_at) / Fold change /veh IGFBP7 (11715501_s_at) / RFU REEP3 (11722064_at) / Fold change /veh REEP3 (11722064_at) / RFU IGLL1 (11728026_x_at) / Fold change /veh IGLL1 (11728026_x_at): dose or concentration left out as unconfirmed",
  "settings": "ProbeSet 11725141_a_at; LIST B",
  "data": [
    {"compound": "Nc1ncn([C@@H]2O[C@H](CO)[C@@H](O)[C@H]2O)c(=O)n1", "note": "[azacitidine]", "values": [
      {"measurement": "RFU, FUBP3", "value": 470.91, "unit": "RFU"}
    ]}
  ]
}
